Experimental data: patent US5726159A, “Antithrombotic agents” (Eli Lilly and Company, priority 1995, dated 1998)
Structures can show the parent of a compound that is named as a salt.

Tests used:
Format in all cases: biochemical
Settings in all cases: concentration required to double the clotting time
Human plasma [1] = assay: Human plasma anticoagulation, thrombin time (TT)
Experimental: (§1) Dog plasma and rat plasma is obtained from conscious mixed-breed hounds (either sex, Hazelton-LRE, Kalamazoo, Mich., U.S.A.) or from anesthetized male Sprague-Dawley rats (Harlan Sprague-Dawley, Inc., Indianapolis, Ind., U.S.A.) by venipuncture into 3.8 percent citrate. Fibrinogen is prepared from in-date ACD human blood as the fraction I-2 according to previous procedures and specifications. […] Human fibrinogen is also purchased as 98 percent pure/plasmin free from American Diagnostica, Greenwich, Conn. Coagulation reagents ACTIN, Thromboplastin, and Human plasma are from Baxter Healthcare Corp., Dade Division, Miami, Fla. Bovine thrombin from Parke-Davis ([…], Mich.) is used for coagulation assays in plasma.
(§2) Coagulation assay procedures are as previously described. […] A CoAScreener coagulation instrument (American LABor, Inc.) is used for all coagulation assay measurements. The prothrombin time (PT) is measured by adding 0.05 mL saline and 0.05 mL Thromboplastin-C reagent to 0.05 mL test plasma. The activated partial thromboplastin time (APTT) is measured by incubation of 0.05 mL test plasma with 0.05 mL Actin reagent for 120 seconds followed by 0.05 mL CaCl2 (0.02M). The thrombin time (TT) is measured by adding 0.05 mL saline and 0.05 mL thrombin (10 NIH units/mL) to 0.05 mL test plasma. The compounds of Formula I are added to human or animal plasma over a wide range of concentrations to determine prolongation effects on the APTT, PT, and TT assays. Linear extrapolations are performed to estimate the concentrations required to double the clotting time for each assay.

Human plasma [2] = assay: Human plasma anticoagulation, activated partial thromboplastin time (APTT)
Experimental: as §1, §2

Human plasma [3] = assay: Human plasma anticoagulation, prothrombin time (PT)
Experimental: as §1, §2

Compound | 2x Clotting time TT (Human plasma [1]) | 2x Clotting time APTT (Human plasma [2]) | 2x Clotting time PT (Human plasma [3])
N=C(N)c1cc(F)c(CNC(=O)[C@@H]2CCCN2C(=O)[C@@H](CC2CCCCC2)NCC(=O)O)c(F)c1 [Example 72, HO2 CCH2 -D-Cha-Pro-4-NHCH2 -3,5-F2 -benzamidine.HCl] | 1 ng/mL | 160 ng/mL | 160 ng/mL
O=C(O)CN[C@H](CC1CCCCC1)C(=O)N1CCC[C@H]1C(=O)NCC1=CCNCC1 [Example 58, HO2 CCH2 -D-Cha-Pro-4-NHCH2 -3,4-dehydro-piperidine.HCl] | 710 ng/mL | 14,300 ng/mL | 11,400 ng/mL
N=C(N)c1cccc(CCCNC(=O)[C@@H]2CCCN2C(=O)[C@@H]2NCC[C@@H]3CCCC[C@@H]32)c1 [Example 33, 1-Piq-Pro-m-NHCH2 CH2 CH2 -C6 H4 C(=NH)NH2.HCl] | 18,900 ng/mL | 59,300 ng/mL | 70,900 ng/mL
N=C(N)c1ccc(CNC(=O)CN(CCc2ccccc2)C(=O)CNCC(=O)O)cc1 [Example 89, HOOCCH2 -Gly-N-C6 H5 CH2 CH2 Gly-p-NHCH2 C6 H4 C(NH)NH2.HCl] | 570 ng/mL | 51,000 ng/mL | 37,000 ng/mL
CCS(=O)(=O)N[C@H](CC1CCCCC1)C(=O)N1CCC[C@H]1C(=O)NCc1ccc(N)nc1 [Example 84, EtSO2 -D-Cha-Pro-5-NHCH2 -2-aminopyridine.HCl] | 110 ng/mL | 1,500 ng/mL | 1,900 ng/mL
N=C(N)Nc1cccc(CNC(=O)[C@@H]2CCCN2C(=O)[C@@H]2NCC[C@@H]3CCCC[C@@H]32)c1 [Example 40, D-1-Piq-Pro-m-NHCH2 C6 H4 NHC(NH)NH2.2HCl] | 35,100 ng/mL | > 91,000 ng/mL | > 91,000 ng/mL
HOOCCH2 -D-hPhe-Pro-p-NHCH2 C6 H4 C(NH)NH2.HCl [Example 87] | 9 ng/mL | 260 ng/mL | 310 ng/mL
N=C(N)c1ccc(CNC(=O)[C@@H]2CCCN2C(=O)[C@@H](CC2CCCCC2)NCC(=O)O)nn1 [Example 69, HO2 CCH2 -D-Cha-Pro-3-NHCH2 -6-amidinopyridazine.HCl] | 5. ng/mL | 110 ng/mL | 220 ng/mL
N=C(N)Nc1ccc(CCNC(=O)[C@@H]2CCCN2C(=O)[C@@H]2NCC[C@@H]3CCCC[C@@H]32)cc1 [Example 39, D-1-Piq-Pro-p-NHCH2 CH2 C6 H4 NHC(NH)NH2.2HCl] | 5,300 ng/mL | 69,200 ng/mL | 78,600 ng/mL
N=C(N)N1CCC(CNC(=O)[C@@H]2CCCN2C(=O)[C@@H](CC2CCCCC2)NCC(=O)O)CC1 [Example 56, HO2 CCH2 -D-Cha-Pro-4-NHCH2 -1-amidinopiperidine.HCl] | 5 ng/mL | 160 ng/mL | 200 ng/mL
N=C(N)c1ccc(CNC(=O)[C@@H]2CCCN2C(=O)[C@@H](CC2CCCCC2)NCC(=O)O)nc1 [Example 66, HO2 CCH2 -D-Cha-Pro-2-NHCH2 -5-amidinopyridine.HCl] | 7.9 ng/mL | 180 ng/mL | 270 ng/mL
CCS(=O)(=O)N[C@H](Cc1ccccc1)C(=O)N1CCC[C@H]1C(=O)NCCc1cccc(C(=N)N)c1 [Example 27, EtSO2 -D-Phe-Pro-m-NHCH2 CH2 -C6 H4 C(=NH)NH2.HCl] | 1,940 ng/mL | 27,800 ng/mL | 27,000 ng/mL
Nc1ccc(CNC(=O)[C@@H]2CCCN2C(=O)[C@@H](CC2CCCCC2)NCC(=O)O)cc1F [Example 77, HO2 CCH2 -D-Cha-Pro-4-NHCH2 -2-F-aniline.HCl] | 53 ng/mL | 1,600 ng/mL | 890 ng/mL
N=C(N)c1ccc(CNC(=O)[C@@H]2CCCN2C(=O)[C@H](NCC(=O)O)C2CCCCC2)cc1 [Example 86, HOOCCH2 -D-Chg-Pro-p-NHCH2 C6 H4 C(NH)NH2.HCl] | 4 ng/mL | 81 ng/mL | 180 ng/mL
NCC1CCC(CNC(=O)[C@@H]2CCCN2C(=O)[C@@H](CC2CCCCC2)NCC(=O)O)CC1 (stereo partly drawn) [Example 79, HO2 CCH2 -D-Cha-Pro-4-NHCH2 C6 H10 CH2 NH2.HCl] | 140 ng/mL | 1,700 ng/mL | 2,400 ng/mL
N=C(N)c1ccc(CCNC(=O)[C@@H]2CCCN2C(=O)[C@@H]2NCC[C@@H]3CCCC[C@@H]32)cc1 [Example 28, 1-Piq-Pro-p-NHCH2 CH2 -C6 H4 C(=NH)NH2.2HCl] | 520 ng/mL | 8,100 ng/mL | 8,300 ng/mL
NCc1ccc(CNC(=O)[C@@H]2CCCN2C(=O)[C@@H](CC2CCCCC2)NCC(=O)O)cc1 [Example 78, HO2 CCH2 -D-Cha-Pro-4-NHCH2 C6 H4 CH2 NH2.HCl] | 46 ng/mL | 430 ng/mL | 760 ng/mL
O=C(O)CN[C@H](CC1CCCCC1)C(=O)N1CCC[C@H]1C(=O)NCCCC1CCNCC1 [Example 55, HO2 CCH2 -D-Cha-Pro-4-NHCH2 CH2 CH2 -piperidine.HCl] | 55,800 ng/mL | > 91,000 ng/mL | > 91,000 ng/mL
CCS(=O)(=O)N[C@H](CC1CCCCC1)C(=O)N1CCC[C@H]1C(=O)NCc1ccc(N)cc1F [Example 82, EtSO2 -D-Cha-Pro-4-NHCH2 -3-F-C6 H3 NH2.HCl] | 130 ng/mL | 3,800 ng/mL | 3,000 ng/mL
N=C(N)N1CCC(CCNC(=O)[C@@H]2CCCN2C(=O)[C@@H](CC2CCCCC2)NCC(=O)O)CC1 [Example 57, HO2 CCH2 -D-Cha-Pro-4-NHCH2 CH2 -1-amidinopiperidine.HCl] | 14 ng/mL | 360 ng/mL | 340 ng/mL
N=C(N)c1cccc(CNC(=O)[C@@H]2CCCN2C(=O)[C@H](N)Cc2ccccc2)c1 [Example 16, D-Phe-Pro-m-NHCH2 C6 H4 C(NH)NH2.0.75HCl] | 650 ng/mL | 8,600 ng/mL | 8,500 ng/mL
Nc1ccc(CNC(=O)[C@@H]2CCCN2C(=O)[C@@H](CC2CCCCC2)NCC(=O)O)cn1 [Example 74, HO2 CCH2 -D-Cha-Pro-5-NHCH2 -2-aminopyridine.HCl] | 20 ng/mL | 420 ng/mL | 350 ng/mL
1-Piq-Pro-p-NHCH2 C6 H4 C(NH)NH2.2HCl [Example 18] | 7 ng/mL | 79 ng/mL | 170 ng/mL
N=C(N)C1=CNC(CNC(=O)[C@@H]2CCCN2C(=O)[C@@H](CC2CCCCC2)NCC(=O)O)CC1 (stereo partly drawn) [Example 68, HO2 CCH2 -D-Cha-Pro-2-NHCH2 -5-amidino-5,6-dehydro-piperidine.HCl] | 4. ng/mL | 49 ng/mL | 190 ng/mL
